Here are results for 11 compounds from ChEMBL document CHEMBL1201862, “PubChem BioAssay data set” (2004).

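Following 48 hours of exposure in 96-well plates, responses at five concentrations were used to interpolate endpoints linearly. GI50 marks 50% less growth.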 Calls of active or inactive are those of the source. No stated cut-off is given here; in the data, active = GI50 up to about 1.1 µM and inactive = higher.

Some test systems named below: MDA-MB-435; HT-29; SK-MEL-28; HCC 2998; HOP-92; DU-145; HCT-116; EKVX; MOLT-4; SK-OV-3; NCI-H522; M14; SR; UACC-62; SF-295; SF-539; Hs-578T; MDA-N; SNB-19; RPMI-8226.
Test in all cases: inhibition of tumour cell growth, NCI panel, 48 h

For `Oc1ccc(C[C@@H]2CN[C@H](Cc3ccc(O)c(Br)c3)CN2)cc1`, the GI50 with MDA-MB-435, in the assay on HT-29, with SK-MEL-28, in the assay on HCC 2998, in the assay with HOP-92 and in the assay with DU-145 was > 100 µM (inactive) each time. Also, the GI50 in the assay on HCT-116, in the assay with EKVX, with MOLT-4, in the assay on SK-OV-3, in the assay on NCI-H522 and with M14 was > 100 µM (inactive) throughout. Moreover, the GI50 in the assay with SR, with UACC-62, in the assay with SF-295, in the assay on SF-539 and in the assay with Hs-578T was > 100 µM (inactive) in each case.
On to `CC(=O)O[C@H]1CC[C@H]2[C@@H]3CCc4cc(O)c(I)cc4[C@H]3CC[C@]12C`, for which the GI50 with MDA-N was 15.9 µM (inactive); in the assay on HT-29 it was 17.7 µM (inactive); with SK-MEL-28, 15.3 µM (inactive); in the assay on HCC 2998 it was 15 µM (inactive); in the assay with DU-145, 14.8 µM (inactive); in the assay with SNB-19, 15.8 µM (inactive). Besides, the GI50 in the assay on EKVX is 13.1 µM (inactive); in the assay on MOLT-4, 4.73 µM (inactive); in the assay with SK-OV-3, 15.7 µM (inactive); in the assay with NCI-H522, 11.8 µM (inactive); in the assay on RPMI-8226, 12.4 µM (inactive); in the assay with M14 it was 13.6 µM (inactive). Moreover, the GI50 in the assay with SR was 10.6 µM (inactive); with SF-295, 15.3 µM (inactive); in the assay with SF-539, 15.2 µM (inactive); with Hs-578T, 14.9 µM (inactive).
Regarding `CN1C(=O)C(C(N)=O)C2CC1(C)Oc1ccccc12` (stereo not given), the GI50 in the assay on MDA-MB-435, in the assay with HT-29, in the assay on SK-MEL-28, in the assay with HCC 2998, with HOP-92 and in the assay on DU-145 was > 100 µM (inactive) each time. Further, the GI50 in the assay on SNB-19, with HCT-116, in the assay on EKVX, in the assay on MOLT-4, with SK-OV-3 and in the assay with NCI-H522 was > 100 µM (inactive) each time. Also, the GI50 in the assay on RPMI-8226, in the assay on M14, in the assay with SR, in the assay with UACC-62 and in the assay with Hs-578T was > 100 µM (inactive) in each case.
Consider `CC(C)Oc1ccc(CNC2=NCCO2)c2ccccc12`, for which the GI50 in the assay with MDA-MB-435 is 10.9 µM (inactive); with HT-29 it was 4.01 µM (inactive); in the assay on SK-MEL-28 it was 14.5 µM (inactive); with HCC 2998, 10.9 µM (inactive); in the assay with DU-145, 18.2 µM (inactive); with SNB-19 it was 7.74 µM (inactive). Moreover, the GI50 in the assay on HCT-116 is 12.6 µM (inactive); in the assay on EKVX, 15.1 µM (inactive); in the assay on MOLT-4, 4.85 µM (inactive); in the assay with SK-OV-3, 16.3 µM (inactive); in the assay with RPMI-8226 it was 9.77 µM (inactive); in the assay on M14, 11.4 µM (inactive). The GI50 was 7.85 µM (inactive) in the assay on SR; 15.3 µM (inactive) in the assay on UACC-62; 13.7 µM (inactive) in the assay on SF-295; 9.66 µM (inactive) in the assay with SF-539; 10.3 µM (inactive) in the assay with Hs-578T.
On to `O=C(CCC(NC(=O)OCc1ccccc1)C(=O)OCc1ccccc1)Nc1ccc(OCc2ccccc2)cc1` (stereo not given), for which the GI50 was 17 µM (inactive) with MDA-MB-435; 26.6 µM (inactive) in the assay with HT-29; > 31.6 µM (inactive) in the assay with SK-MEL-28; > 31.6 µM (inactive) in the assay with HCC 2998; > 31.6 µM (inactive) in the assay with HOP-92; > 31.6 µM (inactive) with DU-145. Besides, the GI50 with SNB-19 was 21.7 µM (inactive); in the assay with HCT-116, 11.4 µM (inactive); in the assay on EKVX, > 31.6 µM (inactive); in the assay with MOLT-4, 24.6 µM (inactive); in the assay with SK-OV-3 it was > 31.6 µM (inactive); in the assay with NCI-H522 it was > 100 µM (inactive). The GI50 in the assay with RPMI-8226 is > 10 µM (inactive); in the assay on M14, > 75.7 µM (inactive); in the assay on SR, 27.3 µM (inactive); in the assay with UACC-62, > 31.6 µM (inactive); in the assay with SF-295 it was > 31.6 µM (inactive); in the assay on SF-539 it was > 31.6 µM (inactive). Also, in the assay with Hs-578T, the GI50 is 18.3 µM (inactive).
As for `CNC(=O)N(CCC#N)CCCN(C(=O)NC)c1ccccc1`, the GI50 with MDA-MB-435, in the assay on MDA-N, in the assay with HT-29, in the assay on SK-MEL-28, in the assay with HCC 2998 and in the assay with HOP-92 was > 100 µM (inactive) throughout. Also, the GI50 in the assay with DU-145, with SNB-19, in the assay with HCT-116, in the assay with EKVX, with MOLT-4 and with SK-OV-3 was > 100 µM (inactive) throughout. Besides, the GI50 with NCI-H522, in the assay with RPMI-8226, in the assay with M14, in the assay with SR, in the assay on UACC-62 and with SF-295 was > 100 µM (inactive) throughout. Further, the GI50 with SF-539 is > 100 µM (inactive).
As to `CCc1nn(S(=O)(=O)c2ccc(C)cc2)c2c1CS(=O)(=O)CC2`, the GI50 in the assay on MDA-MB-435, in the assay with MDA-N, in the assay on HT-29, with SK-MEL-28, with DU-145 and in the assay on SNB-19 was > 100 µM (inactive) throughout. The GI50 is > 100 µM (inactive) in the assay on HCT-116; 89.7 µM (inactive) in the assay on EKVX; > 100 µM (inactive) in the assay with MOLT-4; 69.3 µM (inactive) with SK-OV-3; > 100 µM (inactive) with RPMI-8226; > 100 µM (inactive) in the assay with M14. Also, the GI50 in the assay on UACC-62 is > 100 µM (inactive); in the assay with SF-295, 66.8 µM (inactive); in the assay with SF-539, 91.4 µM (inactive); with Hs-578T it was 28 µM (inactive).
Turning to `CC1=C(C)CC(C#N)(C#N)C(C#N)(C#N)C1`, the GI50 is > 4.78 µM (inactive) with MDA-N; > 5.78 µM (inactive) with HT-29; > 10 µM (inactive) with SK-MEL-28; > 10 µM (inactive) in the assay with HCC 2998; > 3.28 µM (inactive) in the assay on HOP-92; > 10 µM (inactive) in the assay on DU-145. Further, the GI50 in the assay with SNB-19 was > 10 µM (inactive); in the assay with HCT-116 it was > 4.91 µM (inactive); in the assay on EKVX, > 10 µM (inactive); with MOLT-4, 2.51 µM (inactive); in the assay on SK-OV-3, > 10 µM (inactive); with NCI-H522, 1 µM (active). The GI50 with RPMI-8226 is 2.18 µM (inactive); in the assay on M14 it was 2.86 µM (inactive); in the assay on SR it was 0.0802 µM (active); in the assay on UACC-62, > 6.58 µM (inactive); in the assay with SF-295 it was > 10 µM (inactive); with SF-539, > 10 µM (inactive). Also, the GI50 in the assay with Hs-578T is > 10 µM (inactive).
On to `Cc1ccc(S(=O)(=O)NC(=O)NC(CCCCN)C(=O)O)cc1` (stereo not given), for which the GI50 was > 100 µM (inactive) with MDA-N; > 100 µM (inactive) in the assay with SK-MEL-28; 70 µM (inactive) with HOP-92; > 100 µM (inactive) with DU-145; > 100 µM (inactive) with SNB-19; > 100 µM (inactive) in the assay on HCT-116. The GI50 in the assay on MOLT-4, in the assay on SK-OV-3, with NCI-H522, in the assay on RPMI-8226, with M14 and in the assay with SR was > 100 µM (inactive) in each case. Besides, the GI50 in the assay on UACC-62, with SF-295, in the assay with SF-539 and in the assay on Hs-578T was > 100 µM (inactive) each time.
With `CC1OC(=O)C(C(C)C)NC(=O)C(C(C)C)OC(=O)C(C(C)C)NC(=O)C(C)OC(=O)C(C(C)C)NC(=O)C(C(C)C)OC(=O)C(C(C)C)NC(=O)C(C)OC(=O)C(C(C)C)NC(=O)C(C(C)C)OC(=O)C(C(C)C)NC1=O` (stereo not given), the GI50 is < 0.0001 µM (active) in the assay on MDA-MB-435; < 0.0001 µM (active) in the assay on MDA-N; 0.0025 µM (active) in the assay on HT-29; 0.0025 µM (active) in the assay on SK-MEL-28; 0.00256 µM (active) with HCC 2998; 0.00255 µM (active) in the assay with HOP-92. For the same compound, the GI50 in the assay on DU-145 was 0.000102 µM (active); in the assay on SNB-19, 0.00349 µM (active); in the assay with EKVX, 0.0198 µM (active); in the assay on MOLT-4 it was 0.0025 µM (active); in the assay with SK-OV-3, 0.00326 µM (active); with RPMI-8226, 0.0025 µM (active). Besides, the GI50 in the assay on M14 is < 0.0001 µM (active); with SR it was < 0.0001 µM (active); in the assay with UACC-62, 0.0025 µM (active); in the assay on SF-539 it was 0.00333 µM (active).
With `Fc1ccc(F)c(/C=N/C23CC4CC(CC(C4)C2)C3)c1`, the GI50 in the assay with MDA-N, in the assay on HT-29, with SK-MEL-28, in the assay on HCC 2998, with HOP-92 and with DU-145 was > 10 µM (inactive) each time. The GI50 with SNB-19, in the assay with HCT-116, in the assay on EKVX, in the assay on MOLT-4, in the assay on SK-OV-3 and in the assay with NCI-H522 was > 10 µM (inactive) throughout. Moreover, the GI50 in the assay on RPMI-8226, with M14, in the assay on SR, with SF-295, in the assay on SF-539 and in the assay with Hs-578T was > 10 µM (inactive) in each case.
